Assay results published in patent US20240368278A1, “GENERATION AND CHARACTERIZATION OF NOVEL TIM-4 BINDING AGENTS” (Heat Biologics, Inc., priority 2021, published 2024).
Entries after “also recorded” stand apart in the source; their conditions may differ.

Tests used:
[1] = system: Tim4-Hek293-FT cells; assay: Phagocytosis assay in Tim4-Hek293-FT cell line; assay type: cell-based; settings: for inhibition of phagocytosis (RFU): Tim4-Hek293-FT cells, 96 well plate, vs untreated control
Method: Stable Tim-4 expression was confirmed by RT-PCR using primers against Tim-4 mRNA and Gapdh mRNA (control). […] Scale bar represents 300 μm.
In FIG. 5A, the Tim4-Hek293-FT cells were plated in a 96 well plate, followed by the phagocytosis assay. Statistical analysis was performed using a t-test (p>0.05=*). Relative fluorescence units (“RFU”) were normalized to fluorescent intensity at hour zero. In FIG. 5B, Tim4-Hek293-FT cells were fixed and immunolabeled against Tim-4 and counterstained with DAPI. […] Arrows indicate phosphatidylserine bead. Scale bar represents 75 μm.
In FIG. 7A, cells were plated on a 96 well plate and treatments were performed similar to FIG. 2A. Statistics were performed using a one-way ANOVA followed by a multiple comparison test comparing each treatment to the “untreated” control (p>0.05=*, p>0.01=**, p>0.001=***). […] In FIG. 7A, “116-117 1A” is SEQ ID NO: 30 ([…]), “116-117 2C” is SEQ ID NO: 23 ([…]), “116-117 2D” is SEQ ID NO: 24 ([…]), “116-117 2F” is SEQ ID NO: 25 ([…]), “116-117 3B” is SEQ ID NO: 26 ([…]), “116-117 3C” is SEQ ID NO: 27 ([…]), “116-117 3E” is SEQ ID NO: 17 ([…]), “116-117 3F” is SEQ ID NO: 28 ([…]), “116-117 4A” is SEQ ID NO: 22 ([…]), and “116-117 4G” is SEQ ID NO: 29 ([…]). […] Scale bar represents 150 μm.
To further validate the function of the synthesized peptides, a Tim4-Hek293-FT cell line was developed (FIG. 4A).
A phagocytosis assay, as previously described above and following the experimental outline of FIG. 2A, was performed in the Tim4-Hek293-FT cells. In these experiments, cytochalasin D (20 μM) was used as a control to show phagocytosis failure. […] The inhibition of phagocytosis by SEQ ID NO: 17 is also shown in the immunofluorescence images of FIG. 7B.

[2] = system: THP-1 cells; assay: Phagocytosis assay in THP-1 cells with phosphatidylserine lipid microparticles; assay type: cell-based; settings: for inhibition of phagocytosis (RFU): phosphatidylserine lipid microparticles, peptides at 100 μg/mL, 3 h under serum starvation, vs untreated control
Excerpt: FIG. 2A, FIG. 2B, and FIG. 2C show an image of the THP-1 experimental workflow, an image of THP-1 cells undergoing phagocytosis, and a graph showing data from the phagocytosis experiment. FIG. 2A is an image of the experimental workflow. FIG. 2B is a graph showing data from the peptides derived from the CDR3 regions of antibodies tested in the phagocytosis assay. In FIG. 2B, along the x-axis, “156-1G” refers to SEQ ID NO: 7, “156-IH” refers to SEQ ID NO: 11, “156-2B” refers to SEQ ID NO: 3, and “156-2F” refers to SEQ ID NO: 15. In this assay, cells were treated with the indicated treatments, and cytochalasin D (20 μM) was used as a control to show phagocytosis failure. CDR3 regions from antibodies that bound to Tim-4 were synthesized as peptides, and subsequently tested. The data shown in FIG. 2B represents peptides tested at 100 μg/mL. Statistics were performed using a one-way ANOVA followed by a multiple comparison test comparing each treatment to “untreated” control (p>0.05=*, ns=not significant). […] Phosphatidylserine (“PS”) lipid microparticles are shown and superimposed onto brightfield images of THP-1 cells. […] Scale bar represents 150 μm.
Phagocytosis assays using the developed peptides derived from the CDR3 regions of antibodies (e.g., SEQ ID NO: 35, SEQ ID NO: 36, SEQ ID NO: 37, and SEQ ID NO: 38) and THP-1 cells were completed by following the experimental outline shown in FIG. 2A. In these experiments, 1×10^5 cells were seeded on a 96 well plate, and the synthesized peptides (e.g., SEQ ID NO: 35, SEQ ID NO: 36, SEQ ID NO: 37, and SEQ ID NO: 38) were then added onto the plate for three hours under serum starvation. Phosphatidylserine lipid microparticles were then added in media containing 10% FBS. Cells were then washed 3 to 5 times with PBS, and the level of fluorescence (e.g., relative fluorescence units, “RFU”) was then analyzed with a plate reader. In these experiments, cytochalasin D (20 μM) was used as a control to show phagocytosis failure. […]

[3] = system: RAW 264.7 cells; assay: RAW phagocytosis assay with carboxylate beads; assay type: cell-based, mouse; settings: across a range of doses
Method: In FIG. 9A, cells were plated on a 96 well plate and treatments were performed with carboxylate beads. Statistics were performed using a one-way ANOVA, followed by a multiple comparison test comparing each treatment to the “untreated” control (p>0.05=*, p>0.01=**, p>0.001=***, p>0.0001=****). In FIG. 9B, a dose response curve of a RAW phagocytosis assay was performed using mouse macrophages RAW cells with cytochalasin D as a control, and graphed in log scale.
(§1) To further validate the function of the synthesized peptide, SEQ ID NO: 17, a phagocytosis assay using SEQ ID NO: 17 in THP-1 cells (FIG. 8A, FIG. 8B, FIG. 8C, and FIG. 8D), and in RAW 264.7 cells (FIG. 9A and FIG. 9B), was performed. […] A dose response curve for SEQ ID NO: 17 in THP-1 cells was generated (FIG. 8D). […] A dose response curve for SEQ ID NO: 17 in RAW 264.7 cells was generated (FIG. 9B).

[4] = system: THP-1 cells; assay: Autophagy assay (autophagosome formation) in THP-1 cells; assay type: cell-based; settings: labeled autophagosomes, Hoechst nuclear stain
Excerpt: In FIG. 11B, autophagosomes are labeled and Hoechst stain is used for nuclear staining.

[5] = molecular target: T1, Tim-4 (Homo sapiens, UniProt Q96H15); assay: Binding to Tim-4 (identification of binders)
T1 sequence (Q96H15 25-378): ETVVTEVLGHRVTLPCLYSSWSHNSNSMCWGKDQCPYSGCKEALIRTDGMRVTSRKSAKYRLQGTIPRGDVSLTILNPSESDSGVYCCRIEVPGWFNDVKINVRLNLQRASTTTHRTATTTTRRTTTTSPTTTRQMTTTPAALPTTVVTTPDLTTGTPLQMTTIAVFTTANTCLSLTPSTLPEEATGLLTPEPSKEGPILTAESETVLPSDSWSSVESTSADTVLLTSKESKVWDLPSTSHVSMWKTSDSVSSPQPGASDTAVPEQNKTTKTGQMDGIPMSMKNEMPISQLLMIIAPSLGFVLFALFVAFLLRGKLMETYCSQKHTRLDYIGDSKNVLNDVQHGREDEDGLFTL

[6] = system: THP-1 cells; assay: Phagocytosis assay in THP-1 cells with carboxylate beads; assay type: cell-based; settings: 96 well plate, vs untreated control
Method: FIG. 3A and FIG. 3B are graphs showing dose response curves of the phagocytosis assay in THP-1 cells using both PS beads and carboxylate beads.
In FIG. 8A, cells were plated on a 96 well plate and treatments were performed with carboxylate beads. Statistics were performed using a one-way ANOVA followed by a multiple comparison test comparing each treatment to the “untreated” control (p>0.05=*, p>0.01=**, p>0.001=***, p>0.0001=****). FIG. 8B are representative images of the phagocytosis assay. […] Scale bare represents 150 μm. […] Scale bar represents 150 μm. FIG. 8D is a graph of a dose response curve.
as §1

binding to Tim-4 [5] | Sequence | phagocytosis of the phosphatidylserine bead (immunofluorescence image) ([1]; Tim4-Hek293-FT cells fixed, immunolabeled against Tim-4, DAPI) | inhibition of phagocytosis (RFU) [1] | inhibition of phagocytosis (RFU) ([1]; listed as 116-117 3E) | inhibition of phagocytosis with phosphatidylserine lipid microparticles compared to carboxylate beads (dose response curves) [2] | inhibition of phagocytosis [3] | autophagosome formation [4] | inhibition of phagocytosis [6] | inhibition of phagocytosis ([6]; listed as 116-117 3E) | inhibition of phagocytosis (RFU) [2]
bound to Tim4 | QCYANHMYCNDSIAVYHFQM [SEQ ID NO: 17] | reduced ability of phagocytosis | inhibited phagocytosis | inhibits phagocytosis | greater inhibition | inhibited phagocytosis | reduces autophagosome formation | inhibited phagocytosis | inhibits phagocytosis | 
 | QTLAFAYNDSDWFEVYKG [156-1G] |  |  |  |  |  |  |  |  | significantly inhibited phagocytosis
 | KVAVMTMAEANRRGTYSS [SEQ ID NO: 3] |  | inhibit phagocytosis; also recorded: limit phagocytosis |  |  |  |  |  |  | significantly inhibited phagocytosis
